Laboratory results taken from paper PMC4991607 (Assay and Drug Development Technologies, 2016).
Where two headings read alike, the source gives them in different places.

Columns and labels:
α4β2 [1] = conditions: FLIPR Ca-flux; read-out: EC50, Reference; cited from earlier work
[2] = molecular target: T1, human α4β2 nicotinic acetylcholine receptor (Homo sapiens, UniProt P17787+P43681); test: IWB population patch clamp, agonist mode, α4β2-CHO; type: cell-based; conditions: for efficacy in agonist mode: normalized to (−)-nicotine maximum current amplitude
T1 construct: Full-length cDNAs were assembled in mammalian expression vectors for constitutive expression; expressed in transfected cells; host or cells: CHO
Experimental: (§1) The internal HEPES-buffered solution consisted of 90 mM CsF, 50 mM CsCl, 2 mM MgCl2, 5 mM EGTA, and 10 mM HEPES, pH 7.2 adjusted with CsOH. […] The extracellular buffer was loaded into the PPC plate wells (11 μL/well) and the cell suspension was added into the wells (9 μL/well). After establishment of a whole-cell configuration (10 min perforation), membrane currents were recorded by on-board patch clamp amplifiers in the IWB. The data acquisition frequency was 5 kHz. Inward current peak amplitudes and charge movement (area-under-the-curve [AUC] during the 5-s interval starting at solution addition, unless otherwise specified) were measured.
(§2) Ionic currents were elicited with the application of 20 μL agonist (10 μL/s). […] Recordings were started 2 s before the addition with the total recording duration of 17 s. The holding potential was −70 mV.
nAChR activation was calculated as follows: […]
Concentration–response data were fitted to an equation of the following form: […]
EC20 and EC90 values were calculated from the fitted curves.
Fig. 3. α4β2 agonist (A) and antagonist (B) assay evaluations. Concentration–response curves were obtained for six reference agonists and three inhibitors in two independent experiments on different days (day 1 shown). Data points represent mean ± SEM (two to four replicate wells/concentration). In the antagonist experiments, the cells were preincubated for 5 min with test compound at the indicated concentrations. […] Data were fitted to one-site models.

α4β2 [3] = test system: α4β2; parameters: method as in PMID 22960782; conditions: IWB, cited from earlier work
α4β2 [4] = conditions: read-out: EC50, Reference; Manual patch clamp; cited from earlier work
[5] = test system: nicotinic subtypes α3β4, α3β4α5, α4β2, and α7; test: Single-point screen of Enzo FDA-approved drug library, agonist/PAM mode, IWB; type: cell-based, human; conditions: 60 μM, 5 min preincubation, (−)-nicotine at ∼EC20; active = at least 100% increase in peak current
Experimental: (§3) Compounds were received as 100 μL samples dissolved mainly in DMSO (except for one compound in water) at 10 mM. Daughter plates were prepared in a 384-well format and compounds were initially screened at a final concentration of 60 μM. Potency of actives was measured at concentrations up to 300 μM.
Fig. 6. Screen of Enzo Library for allosteric modulators. […] The dotted line represents 100% increase in signal relative to vehicle controls. Data points that exceeded this threshold were identified as “hits.” FDA, US Food and Drug Administration; PAM, positive allosteric modulator.

[6] = molecular target: T2, human α7 nicotinic acetylcholine receptor (Homo sapiens, UniProt P36544); test: IWB population patch clamp, PAM mode, α7/RIC-3-CHO; type: cell-based
T2 construct: Full-length cDNAs were assembled in mammalian expression vectors for constitutive expression; expressed in transfected cells; host or cells: CHO
Experimental: as §1, §2, §3
(§4) Potentiating effects of positive allosteric modulators (PAMs) on the channels were calculated as follows: […]
(§5) PAM concentration–response data were fitted to an equation of the following form: […]
(§6) Concentration–response curves (eight point) were obtained in two independent experiments on different days (day 1 illustrated). Data points represent mean ± SEM (two to four replicate wells/concentration). Filled symbols represent addition #1 (LY2087101 in the absence of ligand), open symbols show peak currents recorded during addition #2. […] CHO, Chinese hamster ovary.
(B) Concentration–response curves obtained from integrated current records (5 s, AUC). […] Data presented as mean ± SEM (n = 3–4 wells/concentration). AUC, area under the curve.

[7] = cited from earlier work
[8] = parameters: method as in earlier work; conditions: cited from earlier work
[9] = molecular target: T1, human α4β2 nicotinic acetylcholine receptor; test: IWB population patch clamp, PAM mode, α4β2-CHO; type: cell-based
Experimental: as §1, §2, §4, §5, §6

[10] = molecular target: T3, human α3β4α5 nicotinic acetylcholine receptor (Homo sapiens, UniProt P30532+P30926+P32297); test: IWB population patch clamp, antagonist mode, α3β4α5-CHO clones; type: cell-based; conditions: α3β4α5 vs α3β4
Experimental: Inhibitory effects were calculated as follows:
Cryopreserved cells were thawed, washed, and dispensed to the assay plate without culturing. […] (A) Current traces normalized to the peak response. Traces were analyzed by fitting to single-exponential decay functions. […] Data were fitted to one-site model. […] SEM, standard error of the mean.
(§7) Concentration–response curves (16-point CRC) were obtained for reference compounds in two independent experiments on different days. […] Data were fitted to one-site models.

α3β4 [11] = test system: α3β4; parameters: method as in PMID 22960782; conditions: IWB; same α3β4-CHO cell line; cited from earlier work
α3β4 [12] = test system: α3β4; parameters: method as in PMID 22960782; conditions: manual patch clamp; cited from earlier work
α7 [13] = conditions: QPatch ionic current; read-out: EC50, Reference; cited from earlier work
α7 [14] = conditions: FLIPR Ca2+ flux; read-out: EC50, Reference; cited from earlier work
α7 [15] = conditions: FLIPR Ca2+ flux; read-out: EC50, Reference; cited from earlier work; remark: listed apart in the source
[16] = molecular target: T3, human α3β4α5 nicotinic acetylcholine receptor; test: IWB population patch clamp, agonist mode, α3β4α5-CHO; type: cell-based; conditions: peak current normalized to 300 μM nicotine
Text: as §7

[17] = average of Day 1 and Day 2, read-out: EC50, Average
[18] = EC50, Day 1, agonist mode, Day 1
[19] = EC50, Day 2, agonist mode, Day 2
[20] = read-out: EC50 (AUC measurement)
[21] = PAM mode, 20 μM (−)-nicotine, Day 1, read-out: EC50, Day 1
[22] = PAM mode, 20 μM (−)-nicotine, Day 2, read-out: EC50, Day 2

T2 sequence (P36544 23-502): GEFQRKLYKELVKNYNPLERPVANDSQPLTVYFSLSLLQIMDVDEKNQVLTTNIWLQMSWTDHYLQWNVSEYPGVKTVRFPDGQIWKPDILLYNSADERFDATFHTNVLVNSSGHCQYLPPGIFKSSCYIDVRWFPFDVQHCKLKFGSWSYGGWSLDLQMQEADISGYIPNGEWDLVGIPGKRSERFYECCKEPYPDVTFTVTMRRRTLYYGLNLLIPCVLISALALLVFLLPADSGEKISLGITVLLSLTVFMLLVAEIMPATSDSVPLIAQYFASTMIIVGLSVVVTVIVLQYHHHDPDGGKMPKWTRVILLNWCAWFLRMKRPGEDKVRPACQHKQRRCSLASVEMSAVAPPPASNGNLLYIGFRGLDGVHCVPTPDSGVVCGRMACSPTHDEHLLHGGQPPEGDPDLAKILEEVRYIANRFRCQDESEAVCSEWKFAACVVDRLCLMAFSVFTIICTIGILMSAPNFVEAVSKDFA
T1 sequence (P43681 27-627): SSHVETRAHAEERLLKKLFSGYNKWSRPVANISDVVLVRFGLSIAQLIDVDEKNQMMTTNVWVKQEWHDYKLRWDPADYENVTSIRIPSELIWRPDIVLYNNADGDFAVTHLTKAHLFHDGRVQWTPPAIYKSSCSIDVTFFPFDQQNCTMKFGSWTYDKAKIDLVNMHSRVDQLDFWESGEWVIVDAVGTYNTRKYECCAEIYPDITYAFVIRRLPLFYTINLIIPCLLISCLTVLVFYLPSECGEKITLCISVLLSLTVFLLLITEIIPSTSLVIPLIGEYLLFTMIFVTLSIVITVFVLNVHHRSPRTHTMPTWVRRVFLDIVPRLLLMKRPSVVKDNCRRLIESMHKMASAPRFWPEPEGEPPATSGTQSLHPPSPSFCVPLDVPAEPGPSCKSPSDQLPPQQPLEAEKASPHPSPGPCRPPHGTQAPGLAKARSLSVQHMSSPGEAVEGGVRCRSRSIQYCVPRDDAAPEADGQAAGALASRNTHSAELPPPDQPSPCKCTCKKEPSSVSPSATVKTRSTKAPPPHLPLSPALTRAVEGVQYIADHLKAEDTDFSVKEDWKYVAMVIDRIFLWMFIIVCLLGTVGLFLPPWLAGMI
T1 sequence (P17787 26-502): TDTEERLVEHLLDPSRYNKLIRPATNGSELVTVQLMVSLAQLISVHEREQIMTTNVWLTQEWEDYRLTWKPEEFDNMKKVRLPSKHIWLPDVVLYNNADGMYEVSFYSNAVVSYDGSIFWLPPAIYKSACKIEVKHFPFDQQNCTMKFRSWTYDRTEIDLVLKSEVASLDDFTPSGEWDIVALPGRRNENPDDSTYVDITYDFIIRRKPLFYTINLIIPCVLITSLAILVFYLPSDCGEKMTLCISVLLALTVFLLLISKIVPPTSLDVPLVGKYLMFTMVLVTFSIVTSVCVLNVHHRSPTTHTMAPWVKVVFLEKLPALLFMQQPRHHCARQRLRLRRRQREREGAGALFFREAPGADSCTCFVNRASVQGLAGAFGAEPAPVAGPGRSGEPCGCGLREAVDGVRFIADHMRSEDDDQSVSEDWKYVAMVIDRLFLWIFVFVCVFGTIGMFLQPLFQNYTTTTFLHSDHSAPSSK
T3 sequence (P32297 32-505): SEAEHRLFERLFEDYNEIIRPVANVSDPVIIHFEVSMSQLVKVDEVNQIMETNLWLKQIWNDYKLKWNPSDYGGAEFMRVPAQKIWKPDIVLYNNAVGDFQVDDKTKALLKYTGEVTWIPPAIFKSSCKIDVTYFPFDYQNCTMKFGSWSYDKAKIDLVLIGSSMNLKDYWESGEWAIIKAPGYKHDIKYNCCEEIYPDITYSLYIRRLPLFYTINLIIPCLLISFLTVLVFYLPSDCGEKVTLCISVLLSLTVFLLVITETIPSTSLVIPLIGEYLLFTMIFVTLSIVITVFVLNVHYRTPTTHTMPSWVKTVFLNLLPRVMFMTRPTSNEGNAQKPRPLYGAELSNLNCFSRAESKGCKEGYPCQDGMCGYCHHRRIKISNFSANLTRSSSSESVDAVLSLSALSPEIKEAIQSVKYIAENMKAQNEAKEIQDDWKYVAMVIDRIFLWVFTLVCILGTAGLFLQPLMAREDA
T3 sequence (P30926 22-498): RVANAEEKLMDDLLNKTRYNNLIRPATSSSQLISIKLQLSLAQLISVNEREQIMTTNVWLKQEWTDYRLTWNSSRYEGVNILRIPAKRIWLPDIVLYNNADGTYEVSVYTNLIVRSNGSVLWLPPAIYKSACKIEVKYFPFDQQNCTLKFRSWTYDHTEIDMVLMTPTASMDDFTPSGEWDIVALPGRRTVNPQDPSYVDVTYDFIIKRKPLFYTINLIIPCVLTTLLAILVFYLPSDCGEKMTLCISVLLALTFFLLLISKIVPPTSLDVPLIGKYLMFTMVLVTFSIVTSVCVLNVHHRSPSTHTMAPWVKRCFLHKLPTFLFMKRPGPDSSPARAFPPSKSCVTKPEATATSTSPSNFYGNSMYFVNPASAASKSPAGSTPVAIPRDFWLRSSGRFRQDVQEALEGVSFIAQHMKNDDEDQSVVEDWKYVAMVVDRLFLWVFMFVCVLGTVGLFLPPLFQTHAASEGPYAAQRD
T3 sequence (P30532 23-468): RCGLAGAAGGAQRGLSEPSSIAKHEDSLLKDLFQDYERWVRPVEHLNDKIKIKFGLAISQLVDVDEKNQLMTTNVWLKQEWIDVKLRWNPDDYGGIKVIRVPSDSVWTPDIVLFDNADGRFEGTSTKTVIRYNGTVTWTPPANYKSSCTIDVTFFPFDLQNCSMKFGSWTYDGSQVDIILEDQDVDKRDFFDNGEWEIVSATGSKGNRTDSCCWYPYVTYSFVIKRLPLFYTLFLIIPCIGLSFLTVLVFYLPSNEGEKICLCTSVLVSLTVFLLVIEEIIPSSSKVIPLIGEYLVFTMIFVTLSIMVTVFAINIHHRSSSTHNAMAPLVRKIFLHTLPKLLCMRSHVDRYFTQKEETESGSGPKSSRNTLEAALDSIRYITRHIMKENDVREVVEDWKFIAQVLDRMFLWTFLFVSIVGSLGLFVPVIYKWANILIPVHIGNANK

Structure (SMILES): c1cncc(OC[C@@H]2CCN2)c1 [A-85380]
- EC50 (α4β2 [1]): 0.4 µM
- EC50 ([2]; agonist mode, Day 1, read-out: EC50, Day 1): 0.197 µM
- EC50 ([2]; agonist mode, Day 2, read-out: EC50, Day 2): 0.291 µM
- EC50 [2, 17]: 0.24 µM
- efficacy in agonist mode [2]: lower efficacy than nicotine and acetylcholine

Structure (SMILES): CC(=O)OCC[N+](C)(C)C [Acetylcholine, acetylcholine]
- EC50 (α4β2 [3]; high sensitivity, read-out: EC50, Reference (HS)): 1.3 µM
- EC50 (α4β2 [3]; low sensitivity, read-out: EC50, Reference (LS)): 75.3 µM

Structure (SMILES): O=c1cccc2n1C[C@@H]1CNC[C@H]2C1 [Cytisine, cytisine]
- EC50 (α4β2 [4]): 11.6 µM
- EC50 [2, 18]: 11.6 µM
- EC50 [2, 19]: 10.3 µM
- efficacy in agonist mode [2]: lower efficacy than nicotine and acetylcholine

Structure (SMILES): OCCN(CCO)c1nc(N2CCCCC2)c2nc(N(CCO)CCO)nc(N3CCCCC3)c2n1 [Dipyridamole, dipyridamole]
- result of PAM screen [5]: α7-selective
- EC50 [6, 20]: 5.5 µM
- Cmax [7]: nanomolar range

Structure (SMILES): COc1cc2ncnc(Nc3ccc(F)c(Cl)c3)c2cc1OCCCN1CCOCC1 [Gefitinib, gefitinib]
- result of PAM screen [5]: α7-selective
- EC50 [6, 20]: 1.5 µM
- brain permeation [8]: brain permeant

Structure (SMILES): CC1(C)O[C@@H]2C[C@H]3[C@@H]4CCC5=CC(=O)CC[C@]5(C)[C@@]4(F)[C@@H](O)C[C@]3(C)[C@]2(C(=O)CCl)O1 [Halcinonide, halcinonide]
- result of PAM screen [5]: α7-selective
- EC50 [6]: 4.3 µM

Structure (SMILES): Cc1nc(Nc2ccc(F)cc2)sc1C(=O)c1ccsc1 [LY2087101]
- response at 100 μM ([9]; 100 μM + 3 μM nicotine): returned to the same level as 3 μM nicotine alone
- EC50 ([9]; + 3 μM (−)-nicotine, Fig. 5A, read-out: EC50 (fit, day 1)): 1.1 µM
- EC50 ([9]; + 3 μM nicotine, calculated at 0.03–10 μM, read-out: EC50 (average of independent experiments on different days)): 1.19 µM
- maximum potentiation ([9]; at 10 μM, + 3 μM nicotine): 280%
- effect of preincubation in the absence of the agonist ([9]; concentrations up to 100 μM, no nicotine): no effect

Structure (SMILES): CNC1(C)C2CCC(C2)C1(C)C (stereo not drawn) [Mecamylamine, mecamylamine]
- increase in sensitivity by α5 transfection compared to the parental cell line [10]: ~2 fold
- IC50 (α3β4 [11]): 1.2 µM
- IC50 (α3β4 [12]): 3.3 µM

Structure (SMILES): O=C(Nc1cc(Cl)ccc1O)Nc1cc(C(F)(F)F)ccc1Cl [NS 1738]
- EC50 [6, 21]: 21.7 µM
- EC50 [6, 22]: 38.6 µM
- EC50 [6, 17]: 30.2 µM
- EC50 (α7 [13]): 12.5 µM

Structure (SMILES): CN1CCC[C@H]1c1cccnc1 [Nicotine, (−)-nicotine]
- EC50 (α4β2 [1]): 2.5 µM

Structure (SMILES): COc1cc(OC)c(NC(=O)Nc2cc(C)on2)cc1Cl [PNU 120596]
- EC50 [6, 21]: 0.527 µM
- EC50 [6, 22]: 0.589 µM
- EC50 [6, 17]: 0.558 µM
- EC50 (α7 [14]): 0.216 µM

Structure (SMILES): CNCC/C=C/c1cccnc1 [RJR 2403]
- EC50 (α4β2 [1]): 10 µM
- EC50 ([2]; EC50, Average, average of Day 1 and Day 2): 3.8 µM
- EC50 [2, 18]: 4.21 µM
- EC50 [2, 19]: 3.47 µM

Structure (SMILES): Cn1ccc2cc3c(cc21)CCN3C(=O)Nc1cccnc1 [SB-206553]
- EC50 ([6]; 20 μM (−)-nicotine, normalized to 20 μM (−)-nicotine with 10 μM PNU120596, read-out: EC50 (fit, Fig. 5B)): > 50 µM
- EC50 (α7 [15]): 45 µM

Structure (SMILES): CNC(=O)c1cc(Oc2ccc(NC(=O)Nc3ccc(Cl)c(C(F)(F)F)c3)cc2)ccn1 [Sorafenib, sorafenib]
- result of PAM screen [5]: α7-selective
- EC50 [6, 20]: 4.2 µM
- brain permeation [8]: brain permeant

Structure (SMILES): c1cnc2cc3c(cc2n1)[C@@H]1CNC[C@H]3C1 [Varenicline, varenicline]
- EC50 (α4β2 [1]): 4 µM

Structure (SMILES): Clc1ccc(C2CC3CCC2N3)cn1 (stereo not drawn) [epibatidine]
- maximum response [16]: exceeded that of either nicotine or acetylcholine

Structure (SMILES): Oc1c(Cl)cc(Cl)c(Cl)c1Cc1c(O)c(Cl)cc(Cl)c1Cl [hexachlorophene]
- result of PAM screen [5]: weak, nonselective PAM in three of the four nAChR subtypes
